Patent US20250268859A1, “OXAFURAMINE, (1R)-N-ETHYL-1-[(2R)-OXOLAN-2-YL]-2-[…], HYDROCHLORIDE AND DERIVATIVES THEREOF FOR TREATING ALZHEIMER'S DISEASE (AD), […] […], […] WITH LEWY BODIES (DLB), MIXED […], FRON[…] DEGENERATION (FTLD), AND PARKINSON'S DISEASE (PD)” (NLS Pharmaceutics AG, priority 2021, published 2025)
Counter-ions that a name gives are not always drawn.

Tests used:
Format in all cases: in vivo, C57BL/6J, male
[1] = tested on: memory (recognition of the familiar object) in mice; assay: Novel Object Recognition (NOR) test in mice; details: mean, N = 16
Experimental: The test was carried out in circular boxes (30 cm diameter, 40 cm high). The objects to be discriminated (L≈1≈h≈3-4 cm) differed in both color and shape and were referred as yellow duck and blue lego. They were fixed with a magnet to the floor of the boxes at 5 cm of the wall, 20 cm distant. Apparently, they have no natural significance for mice and they have never been associated with a reinforcement. In order to rule out the possibility of scent traces left on the objects and therefore the dependency of the recognition capacity of mice on the olfactory cue, the objects and the ground of the box were washed with an odorless disinfectant (Sanicid® diluted in water) and dried between each trial. A camcorder was fixed to the ceiling above the box to record the animals' activity. The experiment was analyzed blindly at a later time.
On the week before the test, animals were handled by the experimenter in charge of the experiment in order to be not stressed at the time of testing. For this purpose, the experimenter placed a small amount of litter, and then the mouse on its hand.
The NOR test was completed over five days (see FIG. 1): • Day 1: Habituation trial. Animals were individually placed for a 15-min free exploration session in empty open boxes. • Day 2. Treatment administration and sample trial. […] They were individually placed 30 min after in the apparatus for a 6-min session with two identical objects (Duck, 50% of animals or Lego, 50% of animals). • Day 3. Choice trial. The mice were individually placed for a 6-min session in the apparatus with two objects (Duck and Lego), one of the objects presented in sample trials (termed as familiar objects) and a novel object (Lego, 50% of animals or Duck, 50% of animals).
The sample and choice trials were recorded with the camera located above the apparatus. The time spent by mice in exploring the objects was measured during the sample trial and the choice trial. Exploration of an object was defined as follows: directing the nose to the object at a distance≤2 cm and/or touching it with the nose or forelimbs; turning around or biting the object, or sitting on the object were not considered as exploratory behavior.
• L=exploration time of the left object in the sample trial. • R=exploration time of the right object in the sample trial. • N=exploration time of the new object in the choice trial. • F=exploration time of the familiar object in the choice trial.
• Exploration indices: • ST=L+R=exploration time (left object+right object) in the sample trial. • CT=N+F=exploration time (new object+familiar object) in the choice trial. • Two memory indices: • N-F=difference of exploration time between the new object and the familiar object in the choice trial.
(§1) Statistical analyses: • Read-outs: DI, N-F, ST, CT, N, F • Unpaired Student's t test: Donep 2 group vs. Control group. • One-way ANOVA, Dunnett test: • NLS-12 groups vs. Control group. • NLS-12 groups vs. Donep 2 group. • Read-outs: DI and N-F, for all groups, paired Student's t test, difference vs. 0. • Body weight: one-way ANOVA.

[2] = Body weight of the mice in the NOR study; details: Donepezil 2 mg/kg i.p. group; mean, N = 16
Excerpt: as §1

[3] = tested on: memory (recognition of the familiar object) in mice; assay: Novel Object Recognition (NOR) test in mice; details: Donepezil 2 mg/kg i.p., 72 h post treatment, mean, N = 16

## COc1cc2c(cc1OC)C(=O)C(CC1CCN(Cc3ccccc3)CC1)C2 (stereo not shown) [Donepezil, Donepezil hydrochloride, reference compound]
[1]; Donepezil 2 mg/kg i.p. 30 min before sample trial, choice trial
  N − F Exploration time novel − familiar object: 4.3 s
[1]; Donepezil 2 mg/kg i.p., 30 min post treatment
  ST Exploration time in the sample trial: 20.2 s
[1]; Donepezil 2 mg/kg i.p., 30 min post treatment, hydrochloride
  ST Exploration time in the sample trial (s): decreased the exploration time during the sample trial
[1]; Donepezil 2 mg/kg i.p., choice trial
  N Exploration time of novel object: 13.1 s
[2]
  BW Body weight: 23.2 g
[3]
  CT Exploration time in the choice trial (s) = N + F: 21.7 s
[3]; hydrochloride
  CT Exploration time in the choice trial (s) = N + F: did not significantly modify the exploration time during the choice trial
